Experimental data from the CheMixHub viscosity set.
± gives the uncertainty stated by the source.

Assay: xn = mol fraction of the nth substance listed
Conditions: 101.33 kPa

SMILES: COCCOCCOC + CCCCCCCCCC
- viscosity (298.15 K, x1 = 0.1008): 0.798 ± 0.01 mPa·s
- viscosity (298.15 K, x1 = 0.2018): 0.788 ± 0.01 mPa·s
- viscosity (298.15 K, x1 = 0.3025): 0.787 ± 0.01 mPa·s
- viscosity (298.15 K, x1 = 0.3984): 0.79 ± 0.01 mPa·s
- viscosity (298.15 K, x1 = 0.4993): 0.8 ± 0.01 mPa·s
- viscosity (298.15 K, x1 = 0.6592): 0.834 ± 0.011 mPa·s
- viscosity (298.15 K, x1 = 0.701): 0.846 ± 0.011 mPa·s
- viscosity (298.15 K, x1 = 0.7987): 0.869 ± 0.011 mPa·s
- viscosity (298.15 K, x1 = 0.9013): 0.915 ± 0.012 mPa·s
- viscosity (308.15 K, x1 = 0.1008): 0.689 ± 0.009 mPa·s
- viscosity (308.15 K, x1 = 0.2018): 0.682 ± 0.009 mPa·s
- viscosity (308.15 K, x1 = 0.3025): 0.679 ± 0.009 mPa·s
- viscosity (308.15 K, x1 = 0.3984): 0.68 ± 0.009 mPa·s
- viscosity (308.15 K, x1 = 0.4993): 0.688 ± 0.009 mPa·s
- viscosity (308.15 K, x1 = 0.6592): 0.716 ± 0.01 mPa·s
- viscosity (308.15 K, x1 = 0.701): 0.726 ± 0.01 mPa·s
- viscosity (308.15 K, x1 = 0.7987): 0.746 ± 0.01 mPa·s
- viscosity (308.15 K, x1 = 0.9013): 0.784 ± 0.01 mPa·s
- viscosity (318.15 K, x1 = 0.1008): 0.597 ± 0.008 mPa·s
- viscosity (318.15 K, x1 = 0.2018): 0.59 ± 0.008 mPa·s
- viscosity (318.15 K, x1 = 0.3025): 0.589 ± 0.008 mPa·s
- viscosity (318.15 K, x1 = 0.3984): 0.589 ± 0.008 mPa·s
- viscosity (318.15 K, x1 = 0.4993): 0.597 ± 0.008 mPa·s
- viscosity (318.15 K, x1 = 0.6592): 0.618 ± 0.008 mPa·s
- viscosity (318.15 K, x1 = 0.701): 0.627 ± 0.009 mPa·s
- viscosity (318.15 K, x1 = 0.7987): 0.643 ± 0.009 mPa·s
- viscosity (318.15 K, x1 = 0.9013): 0.674 ± 0.009 mPa·s

SMILES: COCCOCCOC + CCCCCCCCCCCC
- viscosity (298.15 K, x1 = 0.1009): 1.236 ± 0.016 mPa·s
- viscosity (298.15 K, x1 = 0.1998): 1.157 ± 0.015 mPa·s
- viscosity (298.15 K, x1 = 0.2993): 1.11 ± 0.014 mPa·s
- viscosity (298.15 K, x1 = 0.4034): 1.074 ± 0.014 mPa·s
- viscosity (298.15 K, x1 = 0.5021): 1.043 ± 0.013 mPa·s
- viscosity (298.15 K, x1 = 0.6015): 1.02 ± 0.013 mPa·s
- viscosity (298.15 K, x1 = 0.7024): 1.001 ± 0.013 mPa·s
- viscosity (298.15 K, x1 = 0.8008): 0.981 ± 0.013 mPa·s
- viscosity (298.15 K, x1 = 0.9003): 0.98 ± 0.013 mPa·s
- viscosity (308.15 K, x1 = 0.1009): 1.038 ± 0.013 mPa·s
- viscosity (308.15 K, x1 = 0.1998): 0.976 ± 0.013 mPa·s
- viscosity (308.15 K, x1 = 0.2993): 0.94 ± 0.012 mPa·s
- viscosity (308.15 K, x1 = 0.4034): 0.909 ± 0.012 mPa·s
- viscosity (308.15 K, x1 = 0.5021): 0.884 ± 0.012 mPa·s
- viscosity (308.15 K, x1 = 0.6015): 0.865 ± 0.011 mPa·s
- viscosity (308.15 K, x1 = 0.7024): 0.849 ± 0.011 mPa·s
- viscosity (308.15 K, x1 = 0.8008): 0.837 ± 0.011 mPa·s
- viscosity (308.15 K, x1 = 0.9003): 0.835 ± 0.011 mPa·s
- viscosity (318.15 K, x1 = 0.1009): 0.88 ± 0.012 mPa·s
- viscosity (318.15 K, x1 = 0.1998): 0.83 ± 0.011 mPa·s
- viscosity (318.15 K, x1 = 0.2993): 0.801 ± 0.011 mPa·s
- viscosity (318.15 K, x1 = 0.4034): 0.78 ± 0.01 mPa·s
- viscosity (318.15 K, x1 = 0.5021): 0.757 ± 0.01 mPa·s
- viscosity (318.15 K, x1 = 0.6015): 0.743 ± 0.01 mPa·s
- viscosity (318.15 K, x1 = 0.7024): 0.728 ± 0.01 mPa·s
- viscosity (318.15 K, x1 = 0.8008): 0.72 ± 0.01 mPa·s
- viscosity (318.15 K, x1 = 0.9003): 0.719 ± 0.01 mPa·s

SMILES: COCCOCCOC + CCCCCCCCCCCCCC
- viscosity (298.15 K, x1 = 0.0987): 1.835 ± 0.043 mPa·s
- viscosity (298.15 K, x1 = 0.2023): 1.672 ± 0.039 mPa·s
- viscosity (298.15 K, x1 = 0.302): 1.55 ± 0.037 mPa·s
- viscosity (298.15 K, x1 = 0.4002): 1.448 ± 0.034 mPa·s
- viscosity (298.15 K, x1 = 0.5033): 1.345 ± 0.032 mPa·s
- viscosity (298.15 K, x1 = 0.594): 1.275 ± 0.031 mPa·s
- viscosity (298.15 K, x1 = 0.6981): 1.187 ± 0.029 mPa·s
- viscosity (298.15 K, x1 = 0.7958): 1.113 ± 0.027 mPa·s
- viscosity (298.15 K, x1 = 0.8986): 1.044 ± 0.026 mPa·s
- viscosity (308.15 K, x1 = 0.0987): 1.503 ± 0.036 mPa·s
- viscosity (308.15 K, x1 = 0.2023): 1.38 ± 0.033 mPa·s
- viscosity (308.15 K, x1 = 0.302): 1.29 ± 0.031 mPa·s
- viscosity (308.15 K, x1 = 0.4002): 1.205 ± 0.029 mPa·s
- viscosity (308.15 K, x1 = 0.5033): 1.122 ± 0.027 mPa·s
- viscosity (308.15 K, x1 = 0.594): 1.068 ± 0.026 mPa·s
- viscosity (308.15 K, x1 = 0.6981): 0.996 ± 0.025 mPa·s
- viscosity (308.15 K, x1 = 0.7958): 0.938 ± 0.024 mPa·s
- viscosity (308.15 K, x1 = 0.8986): 0.888 ± 0.022 mPa·s
- viscosity (318.15 K, x1 = 0.0987): 1.248 ± 0.03 mPa·s
- viscosity (318.15 K, x1 = 0.2023): 1.153 ± 0.028 mPa·s
- viscosity (318.15 K, x1 = 0.302): 1.07 ± 0.026 mPa·s
- viscosity (318.15 K, x1 = 0.4002): 1.009 ± 0.025 mPa·s
- viscosity (318.15 K, x1 = 0.5033): 0.945 ± 0.024 mPa·s
- viscosity (318.15 K, x1 = 0.594): 0.902 ± 0.023 mPa·s
- viscosity (318.15 K, x1 = 0.6981): 0.848 ± 0.022 mPa·s
- viscosity (318.15 K, x1 = 0.7958): 0.8 ± 0.021 mPa·s
- viscosity (318.15 K, x1 = 0.8986): 0.76 ± 0.02 mPa·s

SMILES: COCCOCCOC + CCCCCCCCCCCCCCCC
- viscosity (298.15 K, x1 = 0.1013): 2.629 ± 0.06 mPa·s
- viscosity (298.15 K, x1 = 0.2067): 2.359 ± 0.054 mPa·s
- viscosity (298.15 K, x1 = 0.3071): 2.101 ± 0.049 mPa·s
- viscosity (298.15 K, x1 = 0.403): 1.9 ± 0.044 mPa·s
- viscosity (298.15 K, x1 = 0.5078): 1.721 ± 0.041 mPa·s
- viscosity (298.15 K, x1 = 0.6013): 1.568 ± 0.037 mPa·s
- viscosity (298.15 K, x1 = 0.7004): 1.4 ± 0.034 mPa·s
- viscosity (298.15 K, x1 = 0.7997): 1.262 ± 0.031 mPa·s
- viscosity (298.15 K, x1 = 0.9021): 1.106 ± 0.027 mPa·s
- viscosity (308.15 K, x1 = 0.1013): 2.107 ± 0.049 mPa·s
- viscosity (308.15 K, x1 = 0.2067): 1.885 ± 0.044 mPa·s
- viscosity (308.15 K, x1 = 0.3071): 1.712 ± 0.04 mPa·s
- viscosity (308.15 K, x1 = 0.403): 1.552 ± 0.037 mPa·s
- viscosity (308.15 K, x1 = 0.5078): 1.414 ± 0.034 mPa·s
- viscosity (308.15 K, x1 = 0.6013): 1.29 ± 0.031 mPa·s
- viscosity (308.15 K, x1 = 0.7004): 1.173 ± 0.029 mPa·s
- viscosity (308.15 K, x1 = 0.7997): 1.058 ± 0.026 mPa·s
- viscosity (308.15 K, x1 = 0.9021): 0.934 ± 0.023 mPa·s
- viscosity (318.15 K, x1 = 0.1013): 1.69 ± 0.04 mPa·s
- viscosity (318.15 K, x1 = 0.2067): 1.515 ± 0.036 mPa·s
- viscosity (318.15 K, x1 = 0.3071): 1.385 ± 0.033 mPa·s
- viscosity (318.15 K, x1 = 0.403): 1.288 ± 0.031 mPa·s
- viscosity (318.15 K, x1 = 0.5078): 1.178 ± 0.029 mPa·s
- viscosity (318.15 K, x1 = 0.6013): 1.08 ± 0.027 mPa·s
- viscosity (318.15 K, x1 = 0.7004): 0.984 ± 0.025 mPa·s
- viscosity (318.15 K, x1 = 0.7997): 0.89 ± 0.023 mPa·s
- viscosity (318.15 K, x1 = 0.9021): 0.799 ± 0.021 mPa·s
